The record followed here is patent US20160108049A1 (TAKEDA Gmbh, priority 2011, published 2016).

The target of assay [1] is T1, human PDE5 (Homo sapiens, UniProt O76074).
T1 construct: from tissue; host or cells: human platelets from fresh donor blood (platelet lysate)
Put plainly: Inhibition of PDE5 activity (platelet lysate, SPA assay). Type of assay: biochemical. The following applies: 0.5 μM cGMP, read-out: PDE5 Inhibitory values measured as -logIC50 (converted). In a few lines: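 Human platelet lysate (10,000 g supernatant) served as PDE5 source, with 1 μM motapizone and 10 nM PDE2 inhibitor added, in Tris pH 7.4, 5 mM Mg2+, BSA. Substrate 0.5 μM [3H]cGMP, 10–20% conversion; 5 min preincubation then 15 min at 37 °C, stopped by SPA beads with IBMX. IC50 by non-linear regression.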

Assay [2] concerns the target T2, PDE4B1 (Homo sapiens, UniProt Q07343).
T2 construct: made in house; host or cells: SF21 insect cells (baculovirus; virus made in SF9 cells, pCR-Bac vector)
In words: Inhibition of PDE4 activity (PDE4B1, SPA assay). Type of assay: biochemical. The following applies: recombinant PDE4B1, 0.5 μM cAMP; read-out: PDE4B1 Inhibitory values measured as -logIC50 (converted). In a few lines: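 Baculovirus-expressed enzyme from SF21 cell 1000×g supernatant; substrate 0.5 μM [3H]cAMP in 20 mM Tris pH 7.4, 5 mM Mg2+, 0.1 mg/ml BSA, 10-20% conversion. 5 min preincubation at 37 °C, 15 min reaction, stopped by SPA beads with IBMX; IC50 by non-linear regression.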

T2 sequence (Q07343 whole entry): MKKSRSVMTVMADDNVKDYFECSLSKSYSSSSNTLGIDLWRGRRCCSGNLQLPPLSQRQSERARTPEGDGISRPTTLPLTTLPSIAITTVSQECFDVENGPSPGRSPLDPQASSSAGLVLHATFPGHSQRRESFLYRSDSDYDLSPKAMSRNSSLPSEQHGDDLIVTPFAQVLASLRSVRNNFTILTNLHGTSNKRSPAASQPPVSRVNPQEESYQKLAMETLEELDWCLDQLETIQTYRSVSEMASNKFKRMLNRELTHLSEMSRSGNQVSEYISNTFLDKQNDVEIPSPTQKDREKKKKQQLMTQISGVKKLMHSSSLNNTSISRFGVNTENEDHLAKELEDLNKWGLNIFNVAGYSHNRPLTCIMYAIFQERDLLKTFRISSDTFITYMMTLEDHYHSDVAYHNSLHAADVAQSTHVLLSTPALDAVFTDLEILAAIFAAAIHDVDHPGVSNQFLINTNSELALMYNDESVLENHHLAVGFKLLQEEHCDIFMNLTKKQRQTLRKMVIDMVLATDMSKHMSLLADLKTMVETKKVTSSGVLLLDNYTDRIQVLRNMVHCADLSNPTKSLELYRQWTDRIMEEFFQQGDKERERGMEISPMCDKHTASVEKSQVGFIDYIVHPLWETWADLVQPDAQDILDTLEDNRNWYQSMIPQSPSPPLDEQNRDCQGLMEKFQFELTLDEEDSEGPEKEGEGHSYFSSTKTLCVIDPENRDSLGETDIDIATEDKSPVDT

Turning to `COc1ccc(C2=NN(C3CCN(C(=O)[C@@H](Cc4ccccc4)NC(=O)c4c[nH]c5c(-c6c(OCC7CC7)ccc7c6OCO7)ncnc45)CC3)C(=O)C3(CCCC3)C2)cc1OC` [Example 123, 4-[5-(cyclopropylmethoxy)-1,3-benzodioxol-4-yl]-N-[(2R)-1-{4-[9-(3,4-dimethoxyphenyl)-6-oxo-7,8-diazaspiro[4.5]dec-8-en-7-yl]piperidin-1-yl}-1-oxo-3-phenylpropan-2-yl]-5H-pyrrolo[3,2-d]pyrimidine-7-carboxamide], the IC50 in assay [1] and in assay [2] was 1 to 10 nM in each case.

With `COc1ccc(C2=NN(C3CCN(C(=O)[C@@H](Cc4ccccc4)NC(=O)c4c(C)[nH]c5c(-c6c(OCC7CC7)ccc7c6OCO7)ncnc45)CC3)C(=O)C3(CCCC3)C2)cc1OC` [Example 124, 4-[5-(cyclopropylmethoxy)-1,3-benzodioxol-4-yl]-N-[(2R)-1-{4-[9-(3,4-dimethoxyphenyl)-6-oxo-7,8-diazaspiro[4.5]dec-8-en-7-yl]piperidin-1-yl}-1-oxo-3-phenylpropan-2-yl]-6-methyl-5H-pyrrolo[3,2-d]pyrimidine-7-carboxamide], the IC50 in assay [1] and in assay [2] was 1 to 10 nM each time.

On to `COc1ccc(C2=NN(C3CCN(C(=O)[C@H](Cc4cccnc4)NC(=O)c4c[nH]c5c(-c6c(OCC7CC7)ccc7c6OCO7)ncnc45)CC3)C(=O)C3(CCCC3)C2)cc1OC` [Example 125, 4-[5-(cyclopropylmethoxy)-1,3-benzodioxol-4-yl]-N-[(2S)-1-{4-[9-(3,4-dimethoxyphenyl)-6-oxo-7,8-diazaspiro[4.5]dec-8-en-7-yl]piperidin-1-yl}-1-oxo-3-(pyridin-3-yl)propan-2-yl]-5H-pyrrolo[3,2-d]pyrimidine-7-carboxamide], for which the IC50 in assay [1] and in assay [2] was 1 to 10 nM throughout.
